Values of other authors in paper PMC3779694 (Hepatology (Baltimore, Md.), 2011).

Test system: subjects with a variety of chronic liver diseases, mostly chronic hepatitis C
Conditions: five subjects with NASH, 14-day regimen; cited from earlier work

In the case of `C[C@H](NC(=O)C(=O)Nc1ccccc1C(C)(C)C)C(=O)N[C@@H](CC(=O)O)C(=O)COc1c(F)c(F)cc(F)c1F` [IDN-6556], the “ALT reduction in subjects with NASH” value is given as 59%.
